# Measured values published in PMC7698783, “Performance of Population Pharmacokinetic Models in Predicting Polymyxin B Exposures” (Microorganisms, 2020).
# Several values for one entry are separate records, joined by “and”; a condition that tells them apart may be missing. Identical values can stand only once. Positions of bridges follow the written chain, without caps; N, C: chain ends. Non-standard residues stand in square brackets, D forms with d. Residues, ends and D or L forms follow the SMILES beside them. *: point of attachment. X1 = CC[C@H](C)CCCCC(=O)*; Dab = NCC[C@H](N)C(=O)O
# Assays:
# [1] = 3 population PK studies, no demographic variables linked to total clearance; cited from earlier work
# Excerpt: In contrast, body weight was linked to total clearance in a study using a two-compartment model. Finally, creatinine clearance had been linked to total clearance of polymyxin B in cystic fibrosis patients. || There were several limitations in our study. Only a limited number of (primarily male) patients were enrolled with standard clinical dosing and dosing frequency. The robustness of our conclusion would be enhanced with a larger sample size and a wider range of dosing regimens. Also, the observed AUC values for comparison were based only 4 data points over a single dosing interval.
# [2] = Steady-state plasma pharmacokinetics of intravenous polymyxin B in adult patients (LC-MS/MS, ADAPT 5 compartment fitting); format: in vivo; conditions: human, one-compartment model, 13 adult patients, i.v. every 12 h, median, read-out: best-fit elimination half-life (median) (converted)
# Procedure: This was a prospective observational study. The study was conducted from March 2016 to March 2018 at two major teaching hospitals in Singapore: Tan Tock Seng Hospital (TTSH) and Singapore General Hospital (SGH). Adult patients (21 years of age or greater) who received intravenous polymyxin B (USP) for the treatment of suspected or confirmed bacterial infections were enrolled. The dose, dosing interval, and infusion duration of polymyxin B administration were as prescribed by the respective attending medical teams. Patients who were pregnant, on dialysis, with burns or spinal cord injury were excluded.
# For each subject, four blood samples were obtained serially over one dosing interval at steady state (presumably after the third day of therapy). Since the dosing regimens were not standardized, a sampling scheme spanning the samples over the dosing interval was adopted to accommodate different scenarios. Sample 1 was obtained within 0.5 h prior to the next scheduled dose, sample 2 was obtained 0.5–1 h after the end of drug administration, sample 3 was obtained 3–8 h after the end of drug administration, and sample 4 was obtained within 4 h prior to the next scheduled dose. All samples were specifically timed in relation to drug administration. […] Polymyxin B concentrations in plasma samples were determined using a validated liquid chromatography tandem mass spectrometry method. […]
structure (smiles),measurement,setting,value
CC[C@H](C)CCCCC(=O)N[C@@H](CCN)C(=O)N[C@H](C(=O)N[C@@H](CCN)C(=O)N[C@H]1CCNC(=O)[C@H]([C@@H](C)O)NC(=O)[C@H](CCN)NC(=O)[C@H](CCN)NC(=O)[C@H](CC(C)C)NC(=O)[C@@H](Cc2ccccc2)NC(=O)[C@H](CCN)NC1=O)[C@@H](C)O [polymyxin B] (X1-[Dab]T[Dab][Dab][Dab][dF]L[Dab][Dab]T; lactam 4-C),estimates of clearance (total clearance) in population pharmacokinetic studies,[1],2.4 L/h and 2.5 L/h and 2.6 L/h
same,half-life,[2],6.8 h
